{"source": "patent US20250144067A1", "about": "“PERSONALIZED STARVATION THERAPY FOR CANCER” (Faeth Therapeutics, Inc., priority 2021, published 2025)", "key": {"[1]": {"test_system": "NCI-H292 lung cancer cells", "assay": "FDA drug screening, complete media vs cholesterol-free media with simvastatin (TABLE 2)", "assay_type": "cell-based, human", "details": "for Cholesterol-free media + simvastatin (0.04 μM) / Complete Media: NCI-H292 cells"}, "[2]": {"test_system": "NCI-H292 lung cancer cells", "assay": "FDA drug screening, complete media vs cholesterol-free media without statin (TABLE 1)", "assay_type": "cell-based, human"}, "[3]": {"details": "cholesterol-free media with simvastatin 0.04 μM, FDA drug library screen (TABLE 2)"}, "[4]": {"details": "complete media, FDA drug library screen (TABLE 2)"}, "[5]": {"details": "complete media minus cholesterol-free media + simvastatin (0.04 μM), >0 enhanced anti-cancer activity, about 0 neutral, <0 antagonist"}, "[6]": {"details": "Complete minus Cholesterol-free, greater than 0 enhanced anti-cancer activity, about 0 neutral, below 0 antagonist"}, "[7]": {"details": "NCI-H292 cells, FDA drug library screen, cholesterol-free media without statin"}, "[8]": {"details": "NCI-H292 cells, FDA drug library screen, complete media"}, "[9]": {"details": "Complete minus Cholesterol-free, >0 enhanced anti-cancer activity, about 0 neutral, <0 antagonist"}, "[10]": {"details": "NCI-H292 cells, cholesterol-free media without statin, FDA drug library screen"}, "[11]": {"details": "NCI-H292 cells, complete media, FDA drug library screen"}, "[12]": {"details": "FDA drug library screen, cholesterol-free media with simvastatin 0.04 μM"}, "[13]": {"details": "FDA drug library screen, complete media"}, "[14]": {"details": "complete media vs cholesterol-free media + simvastatin (0.04 μM), >0 enhanced anti-cancer activity, about 0 neutral, <0 antagonist"}, "[15]": {"details": "NCI-H292 cells, cholesterol-free media without statin"}, "[16]": {"details": "drug in cholesterol-free media with simvastatin 0.04 μM"}, "[17]": {"details": "complete media vs cholesterol-free media + simvastatin (0.04 μM), […]"}, "[18]": {"details": "Complete minus Cholesterol-free, […]"}, "[19]": {"details": "cholesterol-free media with simvastatin 0.04 μM, cell growth value in FDA drug screen"}, "[20]": {"details": "complete media, cell growth value in FDA drug screen"}, "[21]": {"details": "complete media minus cholesterol-free media + simvastatin, >0 enhanced anti-cancer activity, about 0 neutral, <0 antagonist"}, "[22]": {"details": "complete vs cholesterol-free media, >0 enhanced anti-cancer activity, about 0 neutral, <0 antagonist"}, "[23]": {"details": "FDA library drug in cholesterol-free media with simvastatin 0.04 μM"}, "[24]": {"details": "FDA library drug in complete media"}}, "note": "Counter-ions that a name gives are not always drawn.", "data": [{"compound": "C#Cc1cccc(Nc2ncnc3cc(OCCOC)c(OCCOC)cc23)c1", "note": "[Erlotinib]", "values": [{"measurement": "Cholesterol-free media + simvastatin (0.04 μM)", "setting": "[1]; [3]", "result": 0.5219}, {"measurement": "Complete Media", "setting": "[1]; [4]", "result": 0.4599}, {"measurement": "Difference", "setting": "[1]; [5]", "result": "−0.06"}, {"measurement": "Difference", "setting": "[2]; [6]", "result": "−0.17"}, {"measurement": "Cholesterol-free", "setting": "[2]; [7]", "result": 0.6096}, {"measurement": "Complete", "setting": "[2]; [8]", "result": 0.4429}]}, {"compound": "O=C1c2c(O)ccc(O)c2C(=O)c2c(NCCNCCO)ccc(NCCNCCO)c21", "note": "[Mitoxantrone]", "values": [{"measurement": "Cholesterol-free media + simvastatin (0.04 μM)", "setting": "[1]; [3]", "result": 0.04539}, {"measurement": "Complete Media", "setting": "[1]; [4]", "result": "−0.01641"}, {"measurement": "Difference", "setting": "[1]; [5]", "result": "−0.06"}, {"measurement": "Difference", "setting": "[2]; [9]", "result": "−0.04"}, {"measurement": "Cholesterol-free", "setting": "[2]; [10]", "result": 0.007289}, {"measurement": "Complete", "setting": "[2]; [11]", "result": "−0.03159"}]}, {"compound": "CCc1c(C)[nH]c2c1C(=O)C(CN1CCOCC1)CC2", "note": "(stereo not drawn) [Molindone (hydrochloride)]", "values": [{"measurement": "Cholesterol-free media + simvastatin (0.04 μM)", "setting": "[1]; [12]", "result": 0.9443}, {"measurement": "Complete Media", "setting": "[1]; [13]", "result": 0.8609}, {"measurement": "Difference", "setting": "[1]; [14]", "result": "−0.08"}, {"measurement": "Difference", "setting": "[2]; [9]", "result": "−0.28"}, {"measurement": "Cholesterol-free", "setting": "[2]; [15]", "result": 1.138}, {"measurement": "Complete", "setting": "[2]; NCI-H292 cells, complete media", "result": 0.8619}]}, {"compound": "Bromocriptine (mesylate)", "values": [{"measurement": "Cholesterol-free media + simvastatin (0.04 μM)", "setting": "[1]; [16]", "result": 0.9355}, {"measurement": "Complete Media", "setting": "[1]; drug in complete media", "result": 0.7343}, {"measurement": "Difference", "setting": "[1]; [17]", "result": "−0.20"}, {"measurement": "Difference", "setting": "[2]; [18]", "result": "−0.12"}, {"measurement": "Cholesterol-free", "setting": "[2]; [7]", "result": 0.9359}, {"measurement": "Complete", "setting": "[2]; [8]", "result": 0.8127}]}, {"compound": "CN(C)C(=N)N=C(N)N", "note": "[Metformin (hydrochloride)]", "values": [{"measurement": "Cholesterol-free media + simvastatin (0.04 μM)", "setting": "[1]; [19]", "result": 0.8358}, {"measurement": "Complete Media", "setting": "[1]; [20]", "result": 0.8942}, {"measurement": "Difference", "setting": "[1]; [21]", "result": 0.06}, {"measurement": "Cholesterol-free", "setting": "[2]; [10]", "result": 0.9765}, {"measurement": "Complete", "setting": "[2]; [11]", "result": 1.069}, {"measurement": "Difference", "setting": "[2]; [22]", "result": 0.09}]}, {"compound": "C=CCN1CCCC1CNC(=O)c1cc2[nH]nnc2cc1OC", "note": "(stereo not drawn) [Alizapride hydrochloride]", "values": [{"measurement": "Cholesterol-free media + simvastatin (0.04 μM)", "setting": "[1]; [19]", "result": 1.019}, {"measurement": "Complete Media", "setting": "[1]; [20]", "result": 1.057}, {"measurement": "Difference", "setting": "[1]; [21]", "result": 0.04}, {"measurement": "Cholesterol-free", "setting": "[2]; [15]", "result": 1.222}, {"measurement": "Complete", "setting": "[2]; NCI-H292 cells, complete media", "result": 0.9062}, {"measurement": "Difference", "setting": "[2]; complete vs cholesterol-free media, greater than 0 enhanced anti-cancer activity, about 0 neutral, below 0 antagonists", "result": "−0.32"}]}, {"compound": "CC(=O)[C@H]1CC[C@H]2[C@@H]3CC=C4C[C@@H](O)CC[C@]4(C)[C@H]3CC[C@]12C", "note": "[Pregnenolone]", "values": [{"measurement": "Cholesterol-free media + simvastatin (0.04 μM)", "setting": "[1]; [23]", "result": 1.424}, {"measurement": "Complete Media", "setting": "[1]; [24]", "result": 0.9118}, {"measurement": "Difference", "setting": "[1]; [17]", "result": "−0.51"}, {"measurement": "Difference", "setting": "[2]; [18]", "result": "−0.56"}, {"measurement": "Cholesterol-free", "setting": "[2]; NCI-H292 cells in cholesterol-free media without statin", "result": 1.529}, {"measurement": "Complete", "setting": "[2]; NCI-H292 cells in complete media", "result": 0.9655}]}, {"compound": "COc1cc2ncnc(Nc3ccc(F)c(Cl)c3)c2cc1OCCCN1CCOCC1", "note": "[Gefitinib]", "values": [{"measurement": "Cholesterol-free media + simvastatin (0.04 μM)", "setting": "[1]; [19]", "result": 0.5074}, {"measurement": "Complete Media", "setting": "[1]; [20]", "result": 0.6027}, {"measurement": "Difference", "setting": "[1]; [21]", "result": 0.10}, {"measurement": "Difference", "setting": "[2]; [9]", "result": "−0.25"}, {"measurement": "Cholesterol-free", "setting": "[2]; [15]", "result": 0.6996}, {"measurement": "Complete", "setting": "[2]; NCI-H292 cells, complete media", "result": 0.4472}]}, {"compound": "CCOC(=O)[C@H](CCc1ccccc1)N[C@H]1CS[C@H](c2cccs2)CN(CC(=O)O)C1=O", "note": "[Temocapril (hydrochloride)]", "values": [{"measurement": "Cholesterol-free media + simvastatin (0.04 μM)", "setting": "[1]; [3]", "result": 1.423}, {"measurement": "Complete Media", "setting": "[1]; [4]", "result": 1.436}, {"measurement": "Difference", "setting": "[1]; [5]", "result": 0.01}, {"measurement": "Difference", "setting": "[2]; [9]", "result": 0.00}, {"measurement": "Cholesterol-free", "setting": "[2]; [10]", "result": 0.6068}, {"measurement": "Complete", "setting": "[2]; [11]", "result": 0.6079}]}, {"compound": "O=C1[C@@H]2[C@H]3CC[C@H](C3)[C@@H]2C(=O)N1C[C@@H]1CCCC[C@H]1CN1CCN(c2nsc3ccccc23)CC1", "note": "[Lurasidone (Hydrochloride)]", "values": [{"measurement": "Cholesterol-free media + simvastatin (0.04 μM)", "setting": "[1]; [3]", "result": 0.8431}, {"measurement": "Complete Media", "setting": "[1]; [4]", "result": 0.8046}, {"measurement": "Difference", "setting": "[1]; [5]", "result": "−0.04"}, {"measurement": "Difference", "setting": "[2]; [9]", "result": "−0.27"}, {"measurement": "Cholesterol-free", "setting": "[2]; [15]", "result": 1.115}, {"measurement": "Complete", "setting": "[2]; NCI-H292 cells, complete media", "result": 0.8426}]}, {"compound": "C=CC(=O)Nc1cccc(Oc2nc(Nc3ccc(N4CCN(C)CC4)cc3)nc3ccsc23)c1", "note": "[Olmutinib]", "values": [{"measurement": "Cholesterol-free media + simvastatin (0.04 μM)", "setting": "[1]; [12]", "result": 0.5571}, {"measurement": "Complete Media", "setting": "[1]; [13]", "result": 0.4482}, {"measurement": "Difference", "setting": "[1]; [14]", "result": "−0.11"}, {"measurement": "Cholesterol-free", "setting": "[2]; [10]", "result": 0.5571}, {"measurement": "Complete", "setting": "[2]; [11]", "result": 0.798}, {"measurement": "Difference", "setting": "[2]; [22]", "result": 0.24}]}, {"compound": "CCOc1ccccc1OCCN[C@H](C)Cc1ccc(OC)c(S(N)(=O)=O)c1", "note": "[Tamsulosin]", "values": [{"measurement": "Cholesterol-free media + simvastatin (0.04 μM)", "setting": "[1]; [16]", "result": 1.361}, {"measurement": "Complete Media", "setting": "[1]; drug in complete media", "result": 1.178}, {"measurement": "Difference", "setting": "[1]; [14]", "result": "−0.18"}, {"measurement": "Difference", "setting": "[2]; [6]", "result": "−0.14"}, {"measurement": "Cholesterol-free", "setting": "[2]; [7]", "result": 1.006}, {"measurement": "Complete", "setting": "[2]; [8]", "result": 0.8695}]}, {"compound": "CCS(=O)(=O)N1CC(CC#N)(n2cc(-c3ncnc4[nH]ccc34)cn2)C1", "note": "[Baricitinib]", "values": [{"measurement": "Cholesterol-free media + simvastatin (0.04 μM)", "setting": "[1]; [23]", "result": 1.286}, {"measurement": "Complete Media", "setting": "[1]; [24]", "result": 0.9674}, {"measurement": "Difference", "setting": "[1]; [14]", "result": "−0.32"}, {"measurement": "Difference", "setting": "[2]; [9]", "result": "−0.22"}, {"measurement": "Cholesterol-free", "setting": "[2]; [15]", "result": 0.7863}, {"measurement": "Complete", "setting": "[2]; NCI-H292 cells, complete media", "result": 0.5701}]}, {"compound": "CN(c1nccc(=O)[nH]1)C1CCN(c2nc3ccccc3n2Cc2ccc(F)cc2)CC1", "note": "[Mizolastine]", "values": [{"measurement": "Cholesterol-free media + simvastatin (0.04 μM)", "setting": "[1]; [12]", "result": 0.9531}, {"measurement": "Complete Media", "setting": "[1]; [13]", "result": 0.8007}, {"measurement": "Difference", "setting": "[1]; [14]", "result": "−0.15"}, {"measurement": "Difference", "setting": "[2]; [6]", "result": "−0.17"}, {"measurement": "Cholesterol-free", "setting": "[2]; [7]", "result": 1.446}, {"measurement": "Complete", "setting": "[2]; [8]", "result": 1.273}]}]}
